Experimental findings from article PMC11066877, “Development and Characterization of Novel FAP-Targeted Theranostic Pairs: A Bench-to-Bedside Study” (Research, 2023) are described below.

Molecules are shown by their SMILES. Like-named read-outs stand apart in the source and are kept apart here.

In series [1] the test system is HT1080-FAP tumor. Nature of the series: FAP-targeted radioligand therapy in HT1080-FAP tumor models. It counts as in vivo, mice. As for the experimental part:
(§1) HT1080-FAP tumor models with higher levels of FAP expression were utilized in this study. Tumor-bearing mice were subjected to therapy experiments when the tumor volume reached 50 to 180 mm^3. Tumor models with different tumor volumes were injected with different therapeutic doses. Mice bearing HT1080-FAP tumors of slightly larger tumor volumes were randomly assigned into 4 groups (n = 5 per group): control group and treatment groups with 800 μCi of [^177Lu]Lu-DOTA-FD1, 400 μCi of [^177Lu]Lu-DOTA-FD3, and 600 μCi [^177Lu]Lu-DOTA-FD3. Mice bearing HT1080-FAP tumors of slightly smaller tumor volumes were also divided into 4 groups (n = 6 per group): control group and treatment groups with 200 μCi of [^177Lu]Lu-DOTA-FD1, 200 μCi of [^177Lu]Lu-DOTA-FD2, and 200 μCi of [^177Lu]Lu-DOTA-FD3. Tumor volume and mice body weight were examined daily after a single-dose injection. Weight monitoring is expressed as a percentage of initial weight on the measurement day. Tumor volume was measured as half of the length × width squared times. Mice were euthanized when the tumor volume exceeded 1,500 mm^3, the tumor ruptured, or when it lost more than 20% of its body weight. T3M-4 tumor models with abundant stroma were established to validate the therapeutic efficacy of [^177Lu]Lu-DOTA-FD3. When the tumor volume grew to 100 to 150 mm^3, the mice were randomly divided into 2 groups (n = 7 per group): free ^177Lu treatment group and 500 μCi [^177Lu]Lu-DOTA-FD3 treatment group. Tumor volume and mice body weight were examined every 2 days.

Series [2] in a line: Ex vivo biodistribution of 177Lu-labeled radioligands in tumor-free nude mice. The following applies: mouse, blood, intravenous, 1.11 MBq, total radioactivity, 24 h p.i., read-out: accumulation in the blood pool (biodistribution). The source says: (§2) After imaging collection and image reconstruction, samples from euthanized experimental mice, including blood and multiple significant organs, were harvested and weighed. The radioactivity in each collected tissue was counted using an automated gamma counter (Wizard 2480, PerkinElmer) and the accumulation of radioactivity in different tissues and organs was quantified and expressed as %ID/g (mean ± SD). [^177Lu]Lu-DOTA-FD1 (~1.11 MBq, n = 3), [^177Lu]Lu-DOTA-FD2 (~1.11 MBq, n = 3), and [^177Lu]Lu-DOTA-FD3 (~1.11 MBq, n = 3) were injected into the tail vein of free nude mice at 6 h, 24 h, and 24 h for ex vivo biodistribution to verify the circulation time of the 3 probes in vivo. Biodistribution data from tumor-bearing mice injected with [^177Lu]Lu-DOTA-FD3 at 45 h (~1.11 MBq, n = 4) and 90 h (~1.11 MBq, n = 3) validated the prolonged enrichment of the probe at the tumor site. At the end of each probe imaging and radioactivity counting study, tumor tissues were fixed in paraformaldehyde tissue fixative. Briefly, sections of 10 μm were cut and stained for H&E following the standard protocols. IHC staining with a FAP antibody (ab227703, Abcam) was performed only on tumor tissues following accepted techniques.

Series [3] in a line: Stability of 177Lu-labeled radiopharmaceuticals in FBS and PBS. The format is in vitro ADME. The following applies: 50% FBS and 50% PBS, checked at 2 h and 24 h. On the procedure: To perform ^68Ga-labeling, approximately 20 nmol of FD1, FD2, or FD3 was dissolved in 20 μl of dimethyl sulfoxide and 230 μl of sterile deionized water. This mixture was added to 400 μl of ^68GaCl3 solution (containing 37 MBq) in 0.1 M HCl, with pH adjusted to 4.0 using 0.1 M NH4OAC. The mixture was incubated at 100 °C for 10 min without any additional purification steps. For ^177Lu-labeling, high-purity radionuclide ^177LuCl3 in 0.04 M HCl (3.9 GBq in 97 μl) was purchased from ITM (Munich, Germany). ^177LuCl3 solution (555 MBq in 0.04 M HCl) was added to 500 μl of 1M NH4OAC (pH = 5), followed by the addition of 375 nmol of FD1, FD2, or FD3. The solution was shaken at a temperature of 100 °C for a duration of 30 min. Instant thin-layer chromatography (iTLC; Eckert & Ziegler Radiopharma Inc.) was used to evaluate the RCP of the final products. For iTLC, the mobile phase consisted of 1 M NH4OAC and methyl alcohol in a ratio of 1:1. The final solution must be adjusted to pH 7.0 before being injected into the experimental mice via the tail vein. The stability of ^177Lu-labeled radiopharmaceuticals was evaluated in a mixture of 50% FBS and 50% PBS at 2 h and 24 h after preparation. In the process of preparing each [^68Ga]Ga-DOTA-FD1 for clinical imaging, the end product underwent sterilization by passing it through a 0.22-μm Millipore filter.

A short description of series [4]: Ex vivo biodistribution of [177Lu]Lu-DOTA-FD3 in HT1080-FAP tumor models. As to conditions: nude (thymus-free), mouse, 1.11 MBq, total radioactivity. Also on record: species or system mice.
Source text: as §2

Series [5] concerns T3M-4 tumor. The series can be described thus: Radioligand therapy in T3M-4 pancreatic cancer models. It counts as in vivo, mice. As to conditions: T3M-4 models. On the procedure:
as §1, with “When the tumor volume grew to 100 to 150 mm^3, the mice were randomly divided into 2 groups (n = 7 per group): free ^177Lu treatment group and 500 μCi [^177Lu]Lu-DOTA-FD3 treatment group. Tumor volume and mice body weight were examined every 2 days.” left out

[6] abbreviates: average tumor volume 180 mm^3 at onset, single dose 400 μCi or 600 μCi.

On to `CCCCCC(=O)N[C@H]1CSCc2cc(CSCCNC(=O)[C@H](CCCCNC(=O)CCCc3ccc(I)cc3)NC(=O)[C@@H](NC(=O)[C@H](CCSC)NC(=O)CN3CCN(CC(=O)O)CCN(CC(=O)O)CCN(CC(=O)O)CC3)C(C)C)cc(c2)CSC[C@@H](C(=O)O)NC(=O)[C@H](Cc2ccccc2)NC(=O)[C@H](CCC(N)=O)NC(=O)[C@H]([C@@H](C)O)NC(=O)[C@@H]2CCCN2C(=O)[C@@H]2CCCN2C1=O` [[^177Lu]Lu-DOTA-FD3, metal not drawn], for which, in series [1] (average tumor volume 50 mm^3 at onset, single dose 200 μCi), the “tumor growth at the end of the study” value is given as “substantially inhibited the tumor growth”. The “mice that acquired complete response (CR)” value in series [1] (average tumor volume 50 mm^3 at onset, single dose 200 μCi, 6 mice per group) is given as 3 out of the 6. For the same molecule, the tumor relapse result in series [1] (setting [6]) is “relapsed from day 14 onward”. Moreover, the “tumor volume change after treatment” value in series [1] (setting [6]) is given as “began to shrink from day 2”. Further, the tissue uptake at 24 h in series [2] is 28.1 ± 3.52 %ID/g. Further, the “stable in FBS and PBS, no significant demetallation” value in series [3] is given as “at least 24 h”. Besides, the tissue uptake at 45 h in series [4] (45 h, read-out: tumor uptake (biodistribution)) turned out to be 10.5 ± 1.02 %ID/g; in series [4] (blood, 45 h p.i., read-out: blood pool retention (biodistribution)), 16.3 ± 2.5 %ID/g. Besides, the tissue uptake at 90 h in series [4] (90 h, read-out: tumor uptake (biodistribution)) was 12.4 ± 3.12 %ID/g; in series [4] (blood, 90 h p.i., read-out: blood pool retention (biodistribution)), 11.5 ± 1.54 %ID/g. Besides, the “mice weight versus free 177Lu treatment group” value in series [5] (500 μCi) is given as “slightly dropped”. Also, the “tumor volume until the end of the observation” value in series [5] (tumor volume around 135 mm^3 at onset, [177Lu]Lu-DOTA-FD3 at 500 μCi) is recorded as “satisfactorily controlled”.
